Where two headings read alike, the source gives them in different places. One block for each compound: values may come before it.
Experiments:
[1] = test system: acetic acid Writhing syndrome; experiment: Anti-acetic acid Writhing test, oral, in mice; assay type: in vivo, mouse (dd strain); settings: for ED50: Mus musculus, po, read-out: ED50 (anti-acetic acid Writhing)
Procedure: Comparative tests for anti-acetic acid Writhing activity in mice were made to the Compound A of the present invention and 4-amino-pyrimidine-N^1 -phenacylbromide (hereinafter referred to as Compound C), using Aspirin as a control compound. The test compounds were respectively suspended in an of aqueous solution of containing five percent of gum Arabic. Eight male mice of dd strain weighing approximately 20 - 23g were used as the test animals. The mice were made to fast for about 19 hours.
After 50 minutes or 170 minutes of administration of the test compounds, 0.1 ml of 0.7% acetic acid solution per 10 g. of the body weight of the test animal was injected intraperitoneally. Regarding the expansion of the hind paw of the mice induced during 15 minutes after the injection, a number of Writhing syndromes were encountered and recorded. Effects of the respective test compounds against the usual behavior of the mice were also observed. In the above test, 5% gum arabic solution per se was administered to the control animal.
Various doses of the respective compounds were orally administered to eight mice. After 1 or 3 hours of the administration, a anti-acetic acid Writhing test was carried out.

[2] = test system: gastric secretion stimulated by carbachol; experiment: Effect on gastric secretion stimulated by carbachol in acute gastric fistula rats; assay type: in vivo, rat (Wistar strain); settings: FIG. 1
Procedure: (§1) Using rats of Wistar strain as test animals weighing about 150 - 160 g., the anti-ulcer activities were measured in accordance with the conventional manner with respect to the following four (4) items.
iv. Effect on gastric secretion in acute gastric fistula rats.
Comparative tests were carried out to measure the effects on gastric secretion stimulated by carbachol and the effects of Compounds A and C on eight rats of Wistar strain. The results are graphically shown in the accompanying FIG. 1.

Stress Ulcer (Immersion) = Stress Ulcer (Immersion) at 23-25° C. for 20 hrs; assay type: in vivo, rat (Wistar strain); settings: for effect on stress ulcer in words: 300 mg/Kg (p.o.)
Procedure: as §1
i. Stress Ulcer (Immersion) at 23° - 25° C. for 20 hrs.

Shay Ulcer = experiment: Effect on Shay Ulcer in rats (17hr. pylorus-ligated rats); assay type: in vivo, rat (Wistar strain); settings: for Inhibitory % (ulcer index) / Ulcer Index (mm): 300 (mg/μg [sic]); for Inhibitory % (ulcer index) / Ulcer Index (mm) / Inhibitory % (titrable acidity) / Inhibitory % (volume) / Titrable Acidity to pH 7.0 / Vol(ml) 100g B.W.: 17hr pylorus-ligated; for Ulcer Index (mm): Compound A n=2, individual values (0),(84), Compound C n=6, * P<0.05; for Inhibitory % (titrable acidity) / Inhibitory % (volume) / Titrable Acidity to pH 7.0 / Vol(ml) 100g B.W.: dose not given in Table 7; for Vol(ml) 100g B.W.: Compound A n=2, individual values (1.11),(3.29); for inhibitory effect against the appearance of ulcer in words: Tables 6 and 7
Procedure: as §1
iii. Effect on Shay Ulcer in rats. (Method by 17hr. pylorusligated rats)

gastric secretion = experiment: Effect on gastric secretion in 4hr. pylorus-ligated rats (intraduodenal); assay type: in vivo, rat (Wistar strain)
Procedure: as §1
ii. Effect on gastric secretion in 4hr. pylorus-ligated rats. (Intraduodenal administration)

pH of the test compound = assay type: physicochemical; settings: footnote of Table 5
[3] = test system: Carrageenin edema of the hind paw of the rat; experiment: Anti-edematic effect, Carrageenin paw edema method, oral, in rats; assay type: in vivo, rat (Wistar strain); settings: for anti-edematic / anti-inflammatory effect in words: 100 mg/Kg p.o.; for Anti-edematic ratio (%) / Comparison with Control Compound (anti-edematic ratio): 100 mg/kg p.o.; for Anti-edematic ratio (%): rats, 3 hours after Carrageenin; for Comparison with Control Compound (anti-edematic ratio): Control compound (Aspirin) = 100
Procedure: Test animal: For the respective compounds, four male rats of the Wistar strain weighing approximately 150g were used. The test animals were made to fast for approximately 16 hours.
The anti-edematic test is carried out by determining the increase of edema due to the injection of […], in accordance with the paw edema method. [see Winter. C. A. et al; Proc. Soc. exp.
The test compounds were respectively suspended in five percent of aqueous solution of gum Arabic, and the suspensions were orally administered to the rats one hour before the injection of the Carrageenin. Activities were determined by measuring the volume of the hind paw of the rat three hours after the administration of the Carrageenin.

stomach mucosa = experiment: Degree of gastric trouble (visible observation of stomach mucosa); assay type: in vivo, rat (Wistar strain); settings: for degree of gastric trouble in words: 100 mg/Kg p.o.; for Degree of gastric trouble: 100 mg/kg p.o., sum of scores (0-3) of 4 rats
From the text: 2. Degree of gastric trouble
The rats used in above test of anti-edematic effects were slaughtered, and their stomaches were visibly observed in accordance with the under-mentioned bases. Measurement values were decided by summing up the respective data of 4 tests of each group.
Visible observation of the stomach mucosa
No abnormality is recognized
Slight edema, congestion or slight erosion
Scattered or limitted erosion and spotted
Heavy erosion, linear bleeding or enlarged

[4] = 3hr, 160 mg/Kg p.o., ** P<0.01 for Compound C
[5] = 150 mg/Kg p.o., * P<0.05 for Compound C
[6] = 300 mg/Kg p.o., ** P<0.01 for Compound A, * P<0.05 for Compound C
[7] = 150 (mg/μg [sic]) intraduodenal
[8] = 300 (mg/μg [sic]) intraduodenal

pH of the test compound (pH of the test compound): 5.8
Structure (SMILES): Nc1cc[n+](CC(=O)c2ccccc2)cn1 [Compound C, 4-amino-pyrimidine-N^1-phenacylbromide]
% of Protection ([1]; 1hr, 20 mg/Kg p.o.): 8%
No. of Writhing Syndrome (m±S.E.) ([1]; 1hr, 20 mg/Kg p.o.): 36.9 ± 3.6
% of Protection ([1]; 1hr, 40 mg/Kg p.o.): 13%
No. of Writhing Syndrome (m±S.E.) ([1]; 1hr, 40 mg/Kg p.o.): 34.9 ± 7.3
% of Protection ([1]; 1hr, 80 mg/Kg p.o.): -12%
No. of Writhing Syndrome (m±S.E.) ([1]; 1hr, 80 mg/Kg p.o.): 45.3 ± 1.7
No. of Writhing Syndrome (m±S.E.) ([1]; 1hr, 160 mg/Kg p.o.): 29.9 ± 5.1
% of Protection ([1]; 1hr, 160 mg/Kg p.o., * P<0.05): 26%
No. of Writhing Syndrome (m±S.E.) ([1]; 1hr, 320 mg/Kg p.o.): 15.9 ± 5.5
% of Protection ([1]; 1hr, 320 mg/Kg p.o., ** P<0.01): 61%
% of Protection ([1]; 3hr, 20 mg/Kg p.o.): -35%
No. of Writhing Syndrome (m±S.E.) ([1]; 3hr, 20 mg/Kg p.o.): 41.4 ± 5.0
% of Protection ([1]; 3hr, 40 mg/Kg p.o.): 27%
No. of Writhing Syndrome (m±S.E.) ([1]; 3hr, 40 mg/Kg p.o.): 22.3 ± 5.3
% of Protection ([1]; 3hr, 80 mg/Kg p.o.): -19%
No. of Writhing Syndrome (m±S.E.) ([1]; 3hr, 80 mg/Kg p.o.): 36.4 ± 3.8
No. of Writhing Syndrome (m±S.E.) ([1]; 3hr, 160 mg/Kg p.o.): 11.0 ± 3.3
% of Protection [1, 4]: 64%
No. of Writhing Syndrome (m±S.E.) ([1]; 3hr, 320 mg/Kg p.o.): 12.9 ± 4.6
% of Protection ([1]; 3hr, 320 mg/Kg p.o., ** P<0.01): 58%
inhibitory effect to Maximum Response [2]: about 35%
Inhibitory % (ulcer index) (Stress Ulcer (Immersion); 150 mg/Kg p.o.): 23.4%
Ulcer Index (mm) (Stress Ulcer (Immersion); [5]): 53.1 ± 5.8 mm
effect on stress ulcer in words (Stress Ulcer (Immersion)): effective
Inhibitory % (ulcer index) (Stress Ulcer (Immersion); 300 mg/Kg p.o.): 66.2%
Ulcer Index (mm) (Stress Ulcer (Immersion); [6]): 23 ± 6.3 mm
Inhibitory % (ulcer index) (Shay Ulcer): 64.8%
Ulcer Index (mm) (Shay Ulcer): 19 ± 7 mm
Inhibitory % (titrable acidity) (Shay Ulcer): -19.3%
Inhibitory % (volume) (Shay Ulcer): 34.5%
Titrable Acidity to pH 7.0 (Shay Ulcer): 414.8 ± 83.0 μ Eq/100g B.W.
Vol(ml) 100g B.W. (Shay Ulcer): 3.14 ± 0.43 ml/100g B.W.
inhibitory effect against the appearance of ulcer in words (Shay Ulcer): outstanding inhibitory effects
Inhibitory % (titrable acidity) (gastric secretion; [7]): 69.7%
Inhibitory % (volume) (gastric secretion; [7]): 53.5%
Titrable acidity to PH 7.0 (gastric secretion; [7]): 57.0 ± 22.4 μEq/100g B.W.
Vol/100 g B.W.(ml) (gastric secretion; [7]): 0.94 ± 0.20 ml/100 g B.W.
Inhibitory % (titrable acidity) (gastric secretion; [8]): 88.2%
Inhibitory % (volume) (gastric secretion; [8]): 69.3%
Titrable acidity to PH 7.0 (gastric secretion; [8]): 22.2 ± 7.6 μEq/100g B.W.
Vol/100 g B.W.(ml) (gastric secretion; [8]): 0.62 ± 0.08 ml/100 g B.W.

Structure (SMILES): CC(C)[N+](C)(CCOC(=O)C1c2ccccc2Oc2ccccc21)C(C)C [Propantheline, reference compound]
Inhibitory % (ulcer index) (Stress Ulcer (Immersion); 15 mg/Kg p.o.): 37.0%
Ulcer Index (mm) (Stress Ulcer (Immersion); 15 mg/Kg p.o.): 43.8 ± 12.9 mm
Inhibitory % (ulcer index) (Stress Ulcer (Immersion); 30 mg/Kg p.o.): 61.4%
Ulcer Index (mm) (Stress Ulcer (Immersion); 30 mg/Kg p.o., ** P<0.01): 26.8 ± 7.4 mm

Degree of gastric trouble (stomach mucosa): 2
pH of the test compound (pH of the test compound): 6.3
Structure (SMILES): COc1ccc(C(=O)C[n+]2ccc(N)nc2)cc1 [Compound A, 4-aminopyrimidine N^1-(p-methoxyphenacyl)bromide]
No. of Writhing Syndrome (m±S.E.) ([1]; 1hr, 20 mg/Kg p.o.): 41.4 ± 5.6
% of Protection ([1]; 1hr, 40 mg/Kg p.o.): 18%
No. of Writhing Syndrome (m±S.E.) ([1]; 1hr, 40 mg/Kg p.o.): 33.1 ± 3.7
% of Protection ([1]; 1hr, 80 mg/Kg p.o.): -15%
No. of Writhing Syndrome (m±S.E.) ([1]; 1hr, 80 mg/Kg p.o.): 46.3 ± 3.6
No. of Writhing Syndrome (m±S.E.) ([1]; 1hr, 160 mg/Kg p.o.): 29.4 ± 5.1
% of Protection ([1]; 1hr, 160 mg/Kg p.o., * P<0.05): 27%
No. of Writhing Syndrome (m±S.E.) ([1]; 1hr, 320 mg/Kg p.o.): 17.1 ± 4.6
% of Protection ([1]; 1hr, 320 mg/Kg p.o., ** P<0.01): 58%
% of Protection ([1]; 3hr, 20 mg/Kg p.o.): -13%
No. of Writhing Syndrome (m±S.E.) ([1]; 3hr, 20 mg/Kg p.o.): 34.6 ± 5.4
% of Protection ([1]; 3hr, 40 mg/Kg p.o.): 43%
No. of Writhing Syndrome (m±S.E.) ([1]; 3hr, 40 mg/Kg p.o.): 17.6 ± 4.8
% of Protection ([1]; 3hr, 80 mg/Kg p.o.): 25%
No. of Writhing Syndrome (m±S.E.) ([1]; 3hr, 80 mg/Kg p.o.): 23.1 ± 6.6
No. of Writhing Syndrome (m±S.E.) ([1]; 3hr, 160 mg/Kg p.o.): 21.8 ± 4.0
% of Protection [1, 4]: 29%
No. of Writhing Syndrome (m±S.E.) ([1]; 3hr, 320 mg/Kg p.o.): 3.8 ± 2.7
% of Protection ([1]; 3hr, 320 mg/Kg p.o., ** P<0.01): 88%
Inhibitory % (ulcer index) (Stress Ulcer (Immersion); 150 mg/Kg p.o.): 28.1%
Ulcer Index (mm) (Stress Ulcer (Immersion); [5]): 37.1 ± 5.9 mm
effect on stress ulcer in words (Stress Ulcer (Immersion)): effective
Inhibitory % (ulcer index) (Stress Ulcer (Immersion); 300 mg/Kg p.o.): 70.3%
Ulcer Index (mm) (Stress Ulcer (Immersion); [6]): 15.3 ± 6.1 mm
Inhibitory % (ulcer index) (Shay Ulcer): 23.4%
Ulcer Index (mm) (Shay Ulcer): 42 mm
Inhibitory % (titrable acidity) (Shay Ulcer): 45.9%
Inhibitory % (volume) (Shay Ulcer): 54.1%
Titrable Acidity to pH 7.0 (Shay Ulcer): 188.2 ± 72.0 μ Eq/100g B.W.
Vol(ml) 100g B.W. (Shay Ulcer): 2.20 ml/100g B.W.
inhibitory effect against the appearance of ulcer in words (Shay Ulcer): outstanding inhibitory effects
anti-edematic / anti-inflammatory effect in words [3]: equal to, or more than that of the Control compound
Anti-edematic ratio (%) [3]: 50.0%
Comparison with Control Compound (anti-edematic ratio) [3]: 140
degree of gastric trouble in words (stomach mucosa): extremely less than that of the Control compound
Inhibitory % (titrable acidity) (gastric secretion; [7]): 92.4%
Inhibitory % (volume) (gastric secretion; [7]): 73.3%
Titrable acidity to PH 7.0 (gastric secretion; [7]): 14.4 ± 4.2 μEq/100g B.W.
Vol/100 g B.W.(ml) (gastric secretion; [7]): 0.5 ± 0.06 ml/100 g B.W.
Inhibitory % (titrable acidity) (gastric secretion; [8]): 96.4%
Inhibitory % (volume) (gastric secretion; [8]): 64.4%
Titrable acidity to PH 7.0 (gastric secretion; [8]): 6.8 ± 3.4 μEq/100g B.W.
Vol/100 g B.W.(ml) (gastric secretion; [8]): 0.72 ± 0.24 ml/100 g B.W.

Degree of gastric trouble (stomach mucosa): 6
Structure (SMILES): Cc1cccc(C(=O)C[n+]2ccc(N)nc2)c1 [Compound B, 4-aminopyrimidine N^1-(m-methylphenacyl)bromide]
anti-edematic / anti-inflammatory effect in words [3]: equal to, or more than that of the Control compound
Anti-edematic ratio (%) [3]: 35.3%
Comparison with Control Compound (anti-edematic ratio) [3]: 99
degree of gastric trouble in words (stomach mucosa): extremely less than that of the Control compound

Structure (SMILES): CC(=O)Oc1ccccc1C(=O)O [Aspirin, reference compound]
ED50 ([1]; 1 h): 410 mg/kg
ED50 ([1]; 3 h): 253 mg/kg
Anti-edematic ratio (%) [3]: 35.8%
Comparison with Control Compound (anti-edematic ratio) [3]: 100
Degree of gastric trouble (stomach mucosa): 12

— patent US4038278A, “4-Aminopyrimidium derivatives and preparation thereof” (Eisai Co., Ltd., priority 1974, dated 1977)
